Entries after “also recorded” stand apart in the source; their conditions may differ. Starred links: 1 amine or outer side, 2 acyl side, 3 side chain; linkers in the order of their positions; H or OH if unused. Positions of bridges follow the written chain, without caps; N, C: chain ends. Non-standard residues stand in square brackets, D forms with d. Residues, ends and D or L forms follow the SMILES beside them. *: point of attachment. dProlinol(O-CH2CO) = O=C(COC[C@H]1CCCN1[*:1])[*:2]; N(2-Aminoethyl)Gly = O=C(CN(CCN[*:3])[*:1])[*:2]; X1 = N[C@@H](CS)C(=O)NCCCS(=O)(=O)*; Nle = CCCC[C@H](N)C(=O)O
Tested on: U266 myeloma cell line
Assay: Cell death in U266 myeloma cell line (Dapi dead / Fluo-4 live staining, imaging)
Type: cell-based
Conditions: Dapi for dead cells, Fluo-4 for live cells, imaged at 6 hours, n=3, compared with Compound A (FIG. 1)
Experimental: Compound 2 was tested alongside Compound A and cell death was measured in a U266 myeloma cell line. Dapi staining was used for detection of dead cells and Fluo-4 was used for staining live cells. Cells were then imaged at 6 hours using a Cytation 5 Biotek imaging plate reader.

Question: For `CCCC[C@@H]1NC(=O)CN(S(=O)(=O)CCCNC(=O)[C@@H](N)CS)CCNC(=O)[C@H](CCCCN)NC(=O)[C@H](CC(C)C)NC(=O)[C@H](CCCCN)NC(=O)[C@H](CC(C)C)NC(=O)[C@H](CCCCN)NC(=O)COC[C@H]2CCCN2C(=O)[C@H](Cc2c[nH]c3ccccc23)NC(=O)[C@H](C)NC(=O)[C@H](C(C)C)NC(=O)[C@H](C(C)C)NC1=O` [Compound 2] (X1-[N(2-Aminoethyl)Gly][Nle]VVAW[dProlinol(O-CH2CO)]KLKLK; lactam 1-C), which “potency (cell death)” value is on record?
Answer: Its value is “increased potency relative to Compound A; also recorded: more potency compared to Compound A”.
